{"source": "patent US20100196885A1", "about": "“METHODS OF […] COMPOUNDS FOR USE IN TREATING COPD AND OTHER DISEASES” (priority 2007, published 2010)", "key": {"lung elastin degradation": {"tested_on": "lung elastin degradation", "test": "D/I levels in plasma, urine and sputum of COPD patients before and after Tiotropium, by LC/MS", "assay_type": "in vivo, human", "method": "The mass spectrometric method was used for direct measurement of D/I in urine, plasma and sputum as markers of elastin degradation in healthy controls, patients with α1-antitrypsin deficiency (AATD) and non-AATD-related COPD. Preparation of specimens of urine and sputum and measurements by mass spectrometry (LC/MS) were performed as previously described in Ma S, Lieberman S, Turino G M and Lin Y Y: The detection and quantitation of free desmosine and isodesmosine in human urine and their peptide-bound forms in sputum. PNAS 2003, 100:12941-12943, which is incorporated by reference as if recited in full herein. D and I standard (mixed 50% D and 50% I) were purchased from Elastin Products (Owensville, Mich.), and all other reagents were from Sigma (St. Louis, Mo.). MCX cation exchange cartridges (3 ml) were obtained from Waters (Milford, Mass.), and CF1 cellulose powders were purchased from Whatman (Clifton, N.J.).\nUrine samples. Twenty-four hour urine samples were collected and analyzed as previously described in Ma S, et al., 2003.\nPlasma samples. Plasma samples were obtained after centrifuging venous blood specimens at 2500 r.p.m. for 25 min. Samples were stored at −20 C until used. One ml of plasma and 1 ml of concentrated HCl (37%) were placed in a glass vial. After air in the sample was displaced with a stream of nitrogen, the sample was acid hydrolyzed for 24 hours in 6N HCl. After evaporation to dryness, the residue was dissolved in 2 ml of a mixed solution of n-butanol/acetic acid/6 N HCl (4:1:1, by volume). The sample solution was loaded onto a 3 ml CF1 cartridge. The CF1 cartridge was prepared by introducing 3 ml of the slurry of 5% CF1 cellulose powder in a mixture of n-butanol/acetic acid/water (4:1:1, by volume). The cartridge was washed 3 times with 3 ml of n-butanol/acetic acid/water mixture, and D and I adsorbed in the CF1 cartridge were eluted with 3 ml of water. The eluate was evaporated to dryness under vacuum at 45° C. and the residue was dissolved in 0.1 ml of HPLC mobile phase for LC/MS analysis. For analysis in plasma, samples were processed and measured in duplicate and the results averaged.\nSputum Samples. Sputum samples were processed as previously described in Ma S, et al., 2003 with the following modification: The acid hydrolyzed samples were chromatographed using a CF1 cartridge as described in the treatment of plasma samples. Each sputum sample was processed and measured in duplicate and the results averaged. Sputum was obtained from 3-hour morning collections spontaneously produced. When subjects could not voluntarily produce sputum, sputum induction was induced by 3% saline inhalation for 20 minutes as previously described in Ma S, et al., 2003.\nCOPD patients have elevated levels of D/I in plasma, urine and sputum, which might respond to prolonged bronchodilation. […] Other anticholinergic bronchodilators were stopped prior to TIO, and other therapies/disease treatments were unchanged for the two months of study. To these patients, 18 mcg TIO was administered each 24 hours. D/I in plasma, urine and sputum were measured by liquid chromatography and mass spectrometry (LC/MS) prior to the study and at one month and two months after the study."}, "COPD patients": {"tested_on": "COPD patients", "test": "Spirometry in post-TIO therapy patients", "assay_type": "in vivo, human", "conditions": "most post-TIO therapy patients", "method": "COPD patients have elevated levels of D/I in plasma, urine and sputum, which might respond to prolonged bronchodilation. To determine if clinical effects of Tiotropium (TIO) affect tissue degradation of the lung in COPD, clinically stable patients with COPD (n=9) not on TIO prior to the study and at one month and a second month after initiating therapy were tested. Other anticholinergic bronchodilators were stopped prior to TIO, and other therapies/disease treatments were unchanged for the two months of study. To these patients, 18 mcg TIO was administered each 24 hours. D/I in plasma, urine and sputum were measured by liquid chromatography and mass spectrometry (LC/MS) prior to the study and at one month and two months after the study.\nThe improvement in spirometric indices were usually concordant with levels of D/I in patients."}}, "data": [{"smiles": "C[N+]1(C)[C@@H]2C[C@@H](OC(=O)C(O)(c3cccs3)c3cccs3)C[C@H]1[C@@H]1O[C@@H]12", "note": "[Tiotropium]", "values": [{"measurement": "Significant decreases in D/I levels in plasma (patients showing decrease)", "setting": "lung elastin degradation; COPD patients, 18 mcg TIO each 24 hours, one and two months, plasma, LC/MS", "result": "10 out of 12"}, {"measurement": "Significant decreases in D/I levels in sputum (patients showing decrease)", "setting": "lung elastin degradation; COPD patients, 18 mcg TIO each 24 hours, one and two months, sputum, LC/MS", "result": "all 12 patients"}, {"measurement": "Significant decreases in D/I levels in urine (patients showing decrease)", "setting": "lung elastin degradation; COPD patients, 18 mcg TIO each 24 hours, one and two months, urine, LC/MS", "result": "10 out of 12"}, {"measurement": "Calculated percentage decreases in D/I levels after TIO treatment, time course", "setting": "lung elastin degradation; COPD patients, one month vs second month of TIO", "result": "decreases beginning after one month with further decreases observed in the second month"}, {"measurement": "D/I levels in plasma, urine and sputum after two months of treatment", "setting": "lung elastin degradation; COPD patients, two months of TIO", "result": "significant reductions"}, {"measurement": "Lung elastin degradation, overall response from percent decreases in D/I levels", "setting": "lung elastin degradation; all 12 COPD patients, prolonged TIO treatment", "result": "some decrease in lung elastin degradation"}, {"measurement": "Force Vital Capacity (FVC)", "setting": "COPD patients", "result": "significant increase"}, {"measurement": "Forced Expired Volume in 1 second (FEV1)", "setting": "COPD patients", "result": "significant increase"}, {"measurement": "Residual Volume (RV)", "setting": "COPD patients", "result": "decreases"}, {"measurement": "ratio of FEV1/FVC", "setting": "COPD patients", "result": "significant increase"}]}]}
